We go through 1 substance from patent publication US20230078425A1, “COMPOSITIONS AND METHODS FOR GENERATING SYNTHETIC LETHALITY IN TUMORS” (Engine Biosciences Pte. Ltd., priority 2021, published 2023).

This experiment relates to LS180 cells. The experiment is described as follows: CombiGEM CRISPR/Cas9 double-knockout screen (gene A biomarker + PKMYT1), barcode LFC and GI score, LS180. It counts as cell-based, human. The source says: A combinatorial genetic en masse (CombiGEM™) screen is used to validate synthetic lethal pairs identified by the computational methods described in Example 1. Methods of performing CombiGEM™ are known in the art and described in U.S. Pat. No. 9,315,806; Bari, et al. (2017) Scientific Reports 7:6993; Wong, et al (2016) PNAS 113:2544-2549, each of which are incorporated by reference in their entirety. This example provides an overview of the pooled screening method to validate predicted synthetic lethal pairs of gene A biomarkers and gene B targets.
Briefly, oligonucleotide synthesis is used to generate a library of barcoded gRNA target sequences directed to gene A biomarkers (“gene A gRNA library”) and a library of barcoded gRNA target sequences directed to gene B targets (“gene B gRNA library”). […]
The barcoded sgRNA lentiviral libraries are evaluated in Cas9-expressing cancer cell lines (e.g., HT29 and/or LS180 cell lines). […] Genomic DNA is harvested and used for quantification of the integrated barcodes using a combination of barcode amplification by PCR and sequencing by NGS. […] The barcode reads are normalized per million reads for each sample. To measure cell proliferation, barcode count ratios of normalized barcode reads were calculated as fold changes. […]

As to IGF1, the GI (gene interaction score = observed minus expected (gene A LFC + gene B LFC) double-knockout LFC, gene B = PKMYT1, LS180 cells) was −1.07. The “LFC (gene A * B)” value (log2 fold-change of barcode counts, double knockout of gene A biomarker and PKMYT1, Cas9-expressing LS180 cells) was −1.68.
